pIC50: −log10 of the molar value.
Tests used:
GSK3B [1] = target: T1, GSK3B (Homo sapiens, UniProt P49841); test: NanoBRET cellular target engagement assay, Nanoluc-GSK3B in HEK293 cells; assay type: cell-based; design: expressed in transfected cells; settings: NanoBRET GSK3β IC50, HEK293 cells, tracer K-8, 2 hours, 37° C
GSK3A = target: T2, GSK3A (Homo sapiens, UniProt P49840); test: NanoBRET cellular target engagement assay, Nanoluc-GSK3A in HEK293 cells; assay type: cell-based; settings: NanoBRET GSK3α IC50, HEK293 cells, tracer K-8, 2 hours, 37° C
T2 construct: expressed in transfected cells
T2 sequence (P49840 whole entry): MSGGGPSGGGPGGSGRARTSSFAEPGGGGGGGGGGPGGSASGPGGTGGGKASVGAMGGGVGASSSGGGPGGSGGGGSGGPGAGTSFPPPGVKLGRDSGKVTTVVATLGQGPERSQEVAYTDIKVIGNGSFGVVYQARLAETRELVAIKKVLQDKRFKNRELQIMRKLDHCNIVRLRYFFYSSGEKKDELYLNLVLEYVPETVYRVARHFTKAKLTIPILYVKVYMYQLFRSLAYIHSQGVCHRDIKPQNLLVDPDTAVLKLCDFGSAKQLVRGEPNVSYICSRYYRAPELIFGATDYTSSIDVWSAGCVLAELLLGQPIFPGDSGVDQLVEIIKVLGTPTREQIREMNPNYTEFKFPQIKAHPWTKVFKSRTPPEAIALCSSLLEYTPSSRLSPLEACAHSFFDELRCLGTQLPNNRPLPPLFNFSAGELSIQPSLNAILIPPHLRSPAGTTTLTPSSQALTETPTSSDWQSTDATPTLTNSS

GSK3B [2] = target: T1, GSK3B; test: In vitro enzymatic activity assay, GSK3β; assay type: biochemical; design: Full length human GSK3α or GSK3B expressed as N-terminal GST fusion proteins; GST (N); purchased Carna Biosciences (Japan); host or cells: baculovirus host; settings: 1.0 mM ATP, 1.0 μM peptide substrate, 120 min, 25° C, read-out: Enzyme GSK3β (IC50)
human GSK3α = target: T3, human GSK3α (Homo sapiens, UniProt P49840); test: In vitro enzymatic activity assay, GSK3α; assay type: biochemical; settings: 1.0 mM ATP, 1.0 μM peptide substrate, 120 min, 25° C, read-out: Enzyme GSK3α (IC50)
T3 construct: Full length human GSK3α or GSK3B expressed as N-terminal GST fusion proteins; GST (N); purchased Carna Biosciences (Japan); host or cells: baculovirus host
T3 sequence (P49840 whole entry, the tested form may be a part): as the sequence (P49840 whole entry) above

T1 sequence (P49841 whole entry): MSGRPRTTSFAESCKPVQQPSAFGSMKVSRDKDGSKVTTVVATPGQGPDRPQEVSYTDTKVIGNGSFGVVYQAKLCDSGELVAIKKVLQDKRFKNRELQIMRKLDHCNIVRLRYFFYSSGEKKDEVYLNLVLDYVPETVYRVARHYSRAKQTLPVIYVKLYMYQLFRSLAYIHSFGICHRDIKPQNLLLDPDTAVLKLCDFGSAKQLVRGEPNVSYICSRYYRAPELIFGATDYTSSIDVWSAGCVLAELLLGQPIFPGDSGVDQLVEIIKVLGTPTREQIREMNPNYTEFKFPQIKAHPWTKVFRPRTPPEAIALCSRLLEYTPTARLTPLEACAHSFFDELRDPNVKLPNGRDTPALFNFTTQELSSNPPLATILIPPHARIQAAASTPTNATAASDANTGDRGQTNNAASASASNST

pIC50 (GSK3B [1]) | pIC50 (GSK3A) | pIC50 (GSK3B [2]) | pIC50 (human GSK3α) | SMILES
6.53 | 8.41 | 6.46 | 8.09 | COCc1cc(C)c(-n2cnc(N)c(C(=O)Nc3cncc(C4CCCCCN4)c3)c2=O)c(C)c1 (single isomer, unassigned) [Example 100, (R)-4-amino-N-(5-(azepan-2-yl)pyridin-3-yl)-1-(4-(methoxymethyl)-2,6-dimethylphenyl)-6-oxo-1,6-dihydropyrimidine-5-carboxamide or (S)-4-amino-N-(5-(azepan-2-yl)pyridin-3-yl)-1-(4-(methoxymethyl)-2,6-dimethylphenyl)-6-oxo-1,6-dihydropyrimidine-5-carboxamide]
6.10 | 8.11 | 6.03 | 7.71 | COCc1cc(C)c(-n2cnc(N)c(C(=O)Nc3cncc(C4CCC(C)N4)c3)c2=O)c(C)c1 (single isomer, unassigned) [Example 101]
6.23 | 8.30 | 6.17 | 7.78 | COCc1cc(C)c(-n2cnc(N)c(C(=O)Nc3cncc([C@H]4CCC[C@H](C)N4)c3)c2=O)c(C)c1 (single isomer, unassigned) [Example 102]
6.27 | 8.18 | 6.24 | 7.88 | COCc1cc(C)c(-n2cnc(N)c(C(=O)Nc3cncc([C@H]4CC[C@H](C)N4)c3)c2=O)c(C)c1 (single isomer, unassigned) [Example 103]
6.28 | 8.10 | 6.13 | 7.79 | CCOc1cc(C)c(-n2cnc(N)c(C(=O)Nc3cncc(C(C)N)c3)c2=O)c(C)c1 (single isomer, unassigned) [Example 104, (R)-4-amino-N-(5-(1-aminoethyl)pyridin-3-yl)-1-(4-ethoxy-2,6-dimethylphenyl)-6-oxo-1,6-dihydropyrimidine-5-carboxamide or (S)-4-amino-N-(5-(1-aminoethyl)pyridin-3-yl)-1-(4-ethoxy-2,6-dimethylphenyl)-6-oxo-1,6-dihydropyrimidine-5-carboxamide]
6.36 | 8.41 | 6.17 | 8.00 | Cc1cc(C(F)F)cc(C)c1-n1cnc(N)c(C(=O)Nc2cncc(C3CCCC(C)N3)c2)c1=O (single isomer, unassigned) [Example 107]
6.16 | 8.06 | 6.00 | 7.61 | Cc1cc(C(F)F)cc(C)c1-n1cnc(N)c(C(=O)Nc2cncc([C@H]3CCC[C@H](C)N3)c2)c1=O (single isomer, unassigned) [Example 108]
6.46 | 8.29 | 6.31 | 7.98 | Cc1cc(C(F)CF)cc(C)c1-n1cnc(N)c(C(=O)Nc2cncc(C3CCCCCN3)c2)c1=O (single isomer, unassigned) [Example 112]
6.97 | 8.77 | 6.88 | 8.52 | Cc1cc(C(F)CF)cc(C)c1-n1cnc(N)c(C(=O)Nc2cncc([C@H]3CCCCN3)c2)c1=O (single isomer, unassigned) [Example 113, 4-amino-1-(4-((R)-1,2-difluoroethyl)-2,6-dimethylphenyl)-6-oxo-N-(5-((R)-piperidin-2-yl)pyridin-3-yl)-1,6-dihydropyrimidine-5-carboxamide or 4-amino-1-(4-((S)-1,2-difluoroethyl)-2,6-dimethylphenyl)-6-oxo-N-(5-((R)-piperidin-2-yl)pyridin-3-yl)-1,6-dihydropyrimidine-5-carboxamide]
6.60 | 8.36 | 6.30 | 7.92 | Cc1cc(C(F)CF)cc(C)c1-n1cnc(N)c(C(=O)Nc2cncc(C(C)N)c2)c1=O (single isomer, unassigned) [Example 114]
6.55 | 8.33 | 6.44 | 8.12 | Cc1cc(C(F)CF)cc(C)c1-n1cnc(N)c(C(=O)Nc2cncc(C3CCCCCN3)c2)c1=O (single isomer, unassigned) [Example 115]
6.99 | 8.74 | 6.90 | 8.54 | CNCc1cncc(NC(=O)c2c(N)ncn(-c3c(Cl)cc(C(F)CF)cc3Cl)c2=O)c1 (single isomer, unassigned) [Example 116, (R)-4-amino-1-(2,6-dichloro-4-(1,2-difluoroethyl)phenyl)-N-(5-((methylamino)methyl)pyridin-3-yl)-6-oxo-1,6-dihydropyrimidine-5-carboxamide or (S)-4-amino-1-(2,6-dichloro-4-(1,2-difluoroethyl)phenyl)-N-(5-((methylamino)methyl)pyridin-3-yl)-6-oxo-1,6-dihydropyrimidine-5-carboxamide]
7.09 | 8.85 | 6.98 | 8.66 | CNCc1cncc(NC(=O)c2c(N)ncn(-c3c(Cl)cc(C(F)CF)cc3Cl)c2=O)c1 (single isomer, unassigned) [Example 117, (R)-4-amino-1-(2,6-dichloro-4-(1,2-difluoroethyl)phenyl)-N-(5-((methylamino)methyl)pyridin-3-yl)-6-oxo-1,6-dihydropyrimidine-5-carboxamide or (S)-4-amino-1-(2,6-dichloro-4-(1,2-difluoroethyl)phenyl)-N-(5-((methylamino)methyl)pyridin-3-yl)-6-oxo-1,6-dihydropyrimidine-5-carboxamide]
6.40 | 8.47 | 6.51 | 8.42 | CNC(COC)c1cncc(NC(=O)c2c(N)ncn(-c3c(Cl)cc(C(F)(F)F)cc3Cl)c2=O)c1 (single isomer, unassigned) [Example 121, (R)-4-amino-1-(2,6-dichloro-4-(trifluoromethyl)phenyl)-N-(5-(2-methoxy-1-(methylamino)ethyl)pyridin-3-yl)-6-oxo-1,6-dihydropyrimidine-5-carboxamide or (S)-4-amino-1-(2,6-dichloro-4-(trifluoromethyl)phenyl)-N-(5-(2-methoxy-1-(methylamino)ethyl)pyridin-3-yl)-6-oxo-1,6-dihydropyrimidine-5-carboxamide]
6.50 | 8.30 | 6.49 | 8.28 | CNC(COC)c1cncc(NC(=O)c2c(N)ncn(-c3c(Cl)cc(C(F)(F)F)cc3Cl)c2=O)c1 (single isomer, unassigned) [Example 122, (R)-4-amino-1-(2,6-dichloro-4-(trifluoromethyl)phenyl)-N-(5-(2-methoxy-1-(methylamino)ethyl)pyridin-3-yl)-6-oxo-1,6-dihydropyrimidine-5-carboxamide or (S)-4-amino-1-(2,6-dichloro-4-(trifluoromethyl)phenyl)-N-(5-(2-methoxy-1-(methylamino)ethyl)pyridin-3-yl)-6-oxo-1,6-dihydropyrimidine-5-carboxamide]
6.30 | 8.10 | 6.15 | 7.83 | CCCOc1cc(C)c(-n2cnc(N)c(C(=O)Nc3cncc(C(C)N)c3)c2=O)c(C)c1 (single isomer, unassigned) [Example 126, (R)-4-amino-N-(5-(1-aminoethyl)pyridin-3-yl)-1-(2,6-dimethyl-4-propoxyphenyl)-6-oxo-1,6-dihydropyrimidine-5-carboxamide or (S)-4-amino-N-(5-(1-aminoethyl)pyridin-3-yl)-1-(2,6-dimethyl-4-propoxyphenyl)-6-oxo-1,6-dihydropyrimidine-5-carboxamide]
6.26 | 8.11 | 5.93 | 7.72 | CCC(N)c1cncc(NC(=O)c2c(N)ncn(-c3c(C)cc(C(F)F)cc3C)c2=O)c1 (single isomer, unassigned) [Example 128, (R)-4-amino-N-(5-(1-aminopropyl)pyridin-3-yl)-1-(4-(difluoromethyl)-2,6-dimethylphenyl)-6-oxo-1,6-dihydropyrimidine-5-carboxamide or (S)-4-amino-N-(5-(1-aminopropyl)pyridin-3-yl)-1-(4-(difluoromethyl)-2,6-dimethylphenyl)-6-oxo-1,6-dihydropyrimidine-5-carboxamide]
7.09 | 8.92 | 6.98 | 8.68 | CCOCc1cc(Cl)c(-n2cnc(N)c(C(=O)Nc3cncc(C(N)CC)c3)c2=O)c(Cl)c1 (single isomer, unassigned) [Example 129, (R)-4-amino-N-(5-(1-aminopropyl)pyridin-3-yl)-1-(2,6-dichloro-4-(ethoxymethyl)phenyl)-6-oxo-1,6-dihydropyrimidine-5-carboxamide or (S)-4-amino-N-(5-(1-aminopropyl)pyridin-3-yl)-1-(2,6-dichloro-4-(ethoxymethyl)phenyl)-6-oxo-1,6-dihydropyrimidine-5-carboxamide]
6.34 | 8.28 | 6.23 | 7.87 | CCOCc1cc(C)c(-n2cnc(N)c(C(=O)Nc3cncc(C(C)N)c3)c2=O)c(C)c1 (single isomer, unassigned) [Example 130, (R)-4-amino-N-(5-(1-aminoethyl)pyridin-3-yl)-1-(4-(ethoxymethyl)-2,6-dimethylphenyl)-6-oxo-1,6-dihydropyrimidine-5-carboxamide or (S)-4-amino-N-(5-(1-aminoethyl)pyridin-3-yl)-1-(4-(ethoxymethyl)-2,6-dimethylphenyl)-6-oxo-1,6-dihydropyrimidine-5-carboxamide]

Source: patent US20260327191A1, “GSK3a INHIBITORS AND METHODS OF USE THEREOF” (Blueprint Medicines Corporation, priority 2023, published 2026)
